From US5322846A, “4-methylthiazole derivatives, their methods of preparation and the pharmaceutical compositions in which they are present” (Institut de Recherches Chimiques et Biologiques Appliquees …, priority 1990, dated 1994)
Where a name gives a salt, the structure may show the parent alone. Read-outs that look alike come from different tables or passages of the source.

Assays:
[1] = target: T1, postsynaptic alpha-adrenergic receptors (Rattus norvegicus, UniProt P43140); assay: Alpha-blocking activity towards norepinephrine on isolated rat vas deferens; type: biochemical; conditions: -log of concentration requiring doubled norepinephrine, read-out: pA2 (converted)
T1 construct: causes contraction of the isolated vas deferens; from tissue; host or cells: isolated rat vas deferens
T1 sequence (P43140 1-466): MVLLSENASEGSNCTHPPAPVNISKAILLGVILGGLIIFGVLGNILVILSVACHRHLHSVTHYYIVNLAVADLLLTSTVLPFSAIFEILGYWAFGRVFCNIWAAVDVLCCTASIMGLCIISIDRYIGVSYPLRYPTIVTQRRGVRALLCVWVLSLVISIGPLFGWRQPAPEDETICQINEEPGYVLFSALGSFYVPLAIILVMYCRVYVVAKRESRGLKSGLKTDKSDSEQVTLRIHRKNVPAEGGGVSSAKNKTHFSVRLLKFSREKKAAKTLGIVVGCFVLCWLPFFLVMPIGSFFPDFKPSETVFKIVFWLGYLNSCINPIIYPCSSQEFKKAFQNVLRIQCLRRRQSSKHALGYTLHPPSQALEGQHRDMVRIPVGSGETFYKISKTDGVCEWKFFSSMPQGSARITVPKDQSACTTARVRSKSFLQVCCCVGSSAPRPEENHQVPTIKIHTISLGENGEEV
Procedure: Stimulation of the postsynaptic alpha-adrenergic receptors by norepinephrine causes contraction of the isolated vas deferens.
The concentration of product in whose presence the norepinephrine concentration must be doubled in order to obtain the same effect as in the absence of said product is determined. The logarithm of this concentration, with the opposite sign, constitutes the pA2 of the products.
Their alpha-blocking activity is high since it appears for low concentrations of between 10^-6 M and 10^-8 M.

[2] = Acute toxicity in mice (oral, LD50); conditions: mouse, in vivo, male mice, single dose, 14-day observation
Procedure: The products were administered orally in a single dose to male mice with an average weight of 22 g. The mortality was recorded after a 14-day observation period.
The results are expressed in the form of the 50% lethal dose (LD50), i.e. the theoretical dose in mg.kg^-1, administered orally, which causes the death of 50% of the animals.
The majority of the molecules have an LD50 of more than 1 g.kg^-1. These are therefore products with a low toxicity after a single administration.

[3] = tested on: hypertension induced by norepinephrine; assay: Inhibitory activity towards hypertension induced by norepinephrine in anesthetized rabbits; type: in vivo; conditions: anesthetized male rabbits, intravenous; for ED50: Oryctolagus cuniculus, read-out: ID50 (50% inhibition of norepinephrine-induced hypertension)
Procedure: The blood pressure is measured by catheterization of the left carotid artery of anesthetized male rabbits. An increase in blood pressure is induced by an intravenous injection of norepinephrine. This hypertension can be inhibited by the prior administration of molecules with an alpha-blocking potential.
These are presented in Table 6 in the form of the 50% inhibitory dose (ID50), which is defined as the dose of product which, when administered intravenously, causes a 50% inhibition of the hypertension induced by norepinephrine.

[4] = tested on: lethal effect of norepinephrine; assay: Adrenolytic activity in vivo on the lethal effect of norepinephrine in rats; conditions: for ED50: Rattus norvegicus, wake male rats, norepinephrine 0.4 mg.kg^-1 intravenous, prior administration of product, read-out: ED50 (dose which protects 50% of the animals); for adrenolytic activity in the whole animals: rats, in words
Procedure: The intravenous injection of norepinephrine (0.4 mg.kg^-1) into wake male rats causes the death of 100% of the animals. The prior administration of a substance which has an alpha-blocking property makes it possible to reduce this toxicity.
The results are expressed in the form of the 50% effective dose (ED50), i.e. the dose in mg.kg^-1 which protects 50% of the animals (Table 5).

[5] = tested on: femoral blood pressure and heart rate; assay: Cardiovascular activity (blood pressure and heart rate) in anesthetized rats; type: in vivo; conditions: for Heart rate, maximum effect in % / ED25: I.V., pentobarbital-anesthetized rats; for ED25: Rattus norvegicus, iv, 25% drop in average blood pressure
Procedure: The cardiovascular effects of three products were studied in rats anesthetized with pentobarbital and placed under artificial respiration. The femoral blood pressure and the heart rate are recorded by means of a GOULD-BRUSH apparatus.
The products are administered intravenously in increasing doses. Three animals are tested per product. The dose which causes a 25% drop in average blood pressure (ED25) was evaluated for each product and compared with nicardipine 1 to 5 min after administration.
The products have dose-dependent hypotensive effects but have little or no effect on the heart rate (Table 7). The most hypotensive in terms of the effective dose is B 1395 (ED25 of 0.004 mg.kg^-1).

[6] = 1 min, 1 minute, read-out: Blood pressure: Hypotension, ED25 at 1 minute
[7] = 5 min, 5 minutes, read-out: Blood pressure: Hypotension, ED25 at 5 minutes

Row | SMILES | Kb [1] | LD50 at 336 h [2] | ED50 [3] | active dose [3] | effectiveness against norepinephrine-induced hypertension ([3]; in words) | ED50 [4] | adrenolytic activity in the whole animals [4] | hypotensive potential compared with nicardipine ([5]; ED25 values 5 min after I.V. injection, in words) | Heart rate, maximum effect in % [5] | ED25 [5, 6] | ED25 [5, 7]
1 | CCCOc1ccccc1N1CCN(CC(O)COc2scnc2C)CC1 (stereo not drawn) [B 1395, 3-(4-o-propoxyphenylpiperazin-1-yl)-1-(4-methylthiazolyl-5-oxy)propan-2-olmonohydrochloride] | 20 nM | 515 mg/kg | 0.2 mg/kg | less than 1 mg.kg^-1 | particularly effective | 0.2 mg/kg | very active | on a level with that of nicardipine | -4% | 0.004 mg/kg | 0.1 mg/kg
2 | CCOc1ccccc1N1CCN(CC(O)COc2scnc2C)CC1 (stereo not drawn) [B 1392, 3-(4-o-ethoxyphenylpiperazin-1-yl)-1-(4-methylthiazolyl-5-oxy)propan-2-ol] | 13.2 nM | 260 mg/kg | 2.6 mg/kg |  |  | 0.3 mg/kg | very active |  | -11.2% | 0.024 mg/kg | 0.048 mg/kg
3 | CCOc1ccccc1N1CCN(CCOc2scnc2C)CC1 [B 1258, 4-methyl-5-[2-(4-o-ethoxyphenylpiperazin-1-yl)ethoxy]thiazole] | 15.8 nM | > 1000 mg/kg | 5.6 mg/kg |  |  | 6.5 mg/kg | very active |  | -5.6% | 0.8 mg/kg | 1 mg/kg
